According to paper PMC9168383, “Structural and functional insights into the DNA damage-inducible protein 1 (Ddi1) from protozoa” (Current Research in Structural Biology, 2022):
Ends that are not written are not given here.

Legend:
CrypDdi1-RVP [1] = biological target: T1, CrypDdi1-RVP (Cryptosporidium hominis, UniProt A0A0S4TE75); experiment: Bio-layer interferometry (BLI), CrypDdi1-RVP; type: binding, C. hominis; settings: inhibitor 75-600 μM; for binding of inhibitor to CrypDdi1-RVP: MES pH 5.5
ToxoDdi1-RVP [2] = biological target: T2, ToxoDdi1-RVP (Toxoplasma gondii, UniProt S7W9N7); experiment: FRET activity assay with HIV protease substrate-1 and inhibition by HIV protease inhibitors, ToxoDdi1-RVP; type: biochemical, T. gondii
Experimental: (§1) The activity assay was carried out using HIV protease substrate-1 (Sigma-aldrich). […] It contains the HIV protease cleavage site (Tyr-Pro) and two covalently modified amino acids for the detection of the proteolytic activity: the fluorophore EDANS was attached to the glutamic acid residue on the N-terminal side and the acceptor chromophore DABCYL to the lysine residue on the C-terminal side of the scissile bond. EDANS excited with light at 340 nm emits light at 490 nm which gets absorbed by the DABCYL group. Cleavage of the peptide separates the modified amino acids quenching FRET and emission could be detected at 490 nm ToxoDdi1-RVP and CrypDdi1-RVP were added in different concentrations to 2 μM of HIV protease substrate-1 in a buffer containing 0.1M sodium acetate pH 4.5, 1.0 M sodium chloride, 1.0 mM EDTA, 1.0 mM DTT and 10% DMSO. […] All the samples were incubated at 37 °C for 1 h and the fluorescence emission was recorded at 490 nm.

ToxoDdi1-RVP [3] = biological target: T2, ToxoDdi1-RVP; experiment: biochemical; type: binding
T. gondii = settings: ref Wang et al., 2019; cited from earlier work
human Ddi2 = settings: ref Gu et al., 2020, Fassmannova et al.; cited from earlier work
CrypDdi1-RVP [4] = biological target: T1, CrypDdi1-RVP; experiment: FRET activity assay with HIV protease substrate-1 and inhibition by HIV protease inhibitors, CrypDdi1-RVP; type: biochemical, C. hominis
Experimental: as §1

ToxoDdi1-RVP [5] = biological target: T2, ToxoDdi1-RVP; experiment: HPLC cleavage of HIV protease substrate-1 by ToxoDdi1-RVP; type: biochemical, T. gondii; settings: 10 μM substrate, 22 μg/ml ToxoDdi1-RVP, 100 mM sodium acetate pH 4.7, 1 M NaCl, 1 mM DTT, 37 °C, UV 490 nm
CrypDdi1-RVP [6] = biological target: T1, CrypDdi1-RVP; experiment: HPLC cleavage of HIV protease substrate-1 by CrypDdi1-RVP; type: biochemical, C. hominis; settings: 10 μM substrate, 22 μg/ml CrypDdi1-RVP, UV 490 nm
[7] = biological target: CrypDdi1-RVP (Cryptosporidium hominis); experiment: crystal structure; CrypDdi1-RVP, microbatch, 8 mg/ml, 0.1 M MES-sodium hydroxide pH 6.0, 30% polyacrylate sodium salt, 10% ethanol, 291 K; space group H32, one molecule in the asymmetric unit, dimer by crystallographic 2-fold symmetry
LeishDdi1-fl = biological target: T3, LeishDdi1-fl (Leishmania major, UniProt I7HUG0); experiment: BLI binding of peptides to LeishDdi1-fl; parameters: species or system L. major; settings: 5 mM peptide immobilized on AR2G tip, LeishDdi1-fl in solution, 20 mM HEPES pH 7.5, 100 mM NaCl, 10 min, 1:1 Langmuir
T3 construct: The full length Ddi1 construct, LeishDdi1-fl (1–390 aa) was cloned in pET-28a vector; hexa-histidine (N); made in house; host or cells: E. coli BL-21

[8] = biological target: ToxoDdi1-RVP (Toxoplasma gondii); experiment: crystal structure; ToxoDdi1-RVP, microbatch, 8 mg/ml, 1.8 M ammonium citrate tribasic pH 7.0, 30% 2-propanol, 291 K; space group P41212, six dimers in the asymmetric unit

T1 sequence (A0A0S4TE75 entry or part of it): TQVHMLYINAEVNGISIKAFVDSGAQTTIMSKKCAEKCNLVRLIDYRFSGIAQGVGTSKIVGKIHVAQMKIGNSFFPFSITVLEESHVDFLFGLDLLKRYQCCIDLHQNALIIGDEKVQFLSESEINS
T2 sequence (S7W9N7 entry or part of it): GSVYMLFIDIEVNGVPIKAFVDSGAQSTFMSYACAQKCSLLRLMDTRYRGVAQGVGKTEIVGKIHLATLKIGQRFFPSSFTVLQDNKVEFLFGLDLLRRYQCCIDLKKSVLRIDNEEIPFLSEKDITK
T3 sequence (I7HUG0 whole entry, the tested form may be a part): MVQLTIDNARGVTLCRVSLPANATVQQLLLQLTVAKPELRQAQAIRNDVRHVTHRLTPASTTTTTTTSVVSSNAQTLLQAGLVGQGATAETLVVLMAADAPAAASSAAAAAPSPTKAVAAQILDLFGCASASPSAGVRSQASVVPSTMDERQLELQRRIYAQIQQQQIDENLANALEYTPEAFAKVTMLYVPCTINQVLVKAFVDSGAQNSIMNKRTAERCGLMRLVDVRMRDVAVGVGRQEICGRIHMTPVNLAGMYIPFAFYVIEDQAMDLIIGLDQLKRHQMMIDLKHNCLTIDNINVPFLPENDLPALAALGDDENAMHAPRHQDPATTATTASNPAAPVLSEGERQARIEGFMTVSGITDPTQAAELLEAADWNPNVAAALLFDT

Q: For `CC(C)(C)NC(=O)[C@@H]1CN(Cc2cccnc2)CCN1C[C@@H](O)C[C@@H](Cc1ccccc1)C(=O)N[C@H]1c2ccccc2C[C@H]1O` [indinavir], which “binding of inhibitor to CrypDdi1-RVP” value (CrypDdi1-RVP [1]) is on record?
A: do not bind

Q: Which results are given for `Cc1c(O)cccc1C(=O)N[C@@H](CSc1ccccc1)[C@H](O)CN1C[C@H]2CCCC[C@H]2C[C@H]1C(=O)NC(C)(C)C` [nelfinavir]?
A: effect on proteolytic activity of ToxoDdi1-RVP (ToxoDdi1-RVP [2]; 500 μM inhibitor, 20 μM ToxoDdi1-RVP, 2 μM HIV protease substrate-1, 0.1M sodium acetate pH 4.5, 1.0 M NaCl, 1.0 mM EDTA, 1.0 mM DTT, 10% DMSO, 37 °C, 1 h, emission 490 nm): has an inhibitory effect on the proteolytic activity of ToxoDdi1-RVP; fluorescence intensity in the presence of inhibitor, ToxoDdi1-RVP (ToxoDdi1-RVP [2]; 500 μM inhibitor, 20 μM ToxoDdi1-RVP, FRET, 490 nm, 37 °C, 1 h): did not increase; Kd (ToxoDdi1-RVP [3]): 238 ± 6.3 µM; binding of inhibitor to CrypDdi1-RVP (CrypDdi1-RVP [1]): do not bind; growth of T. gondii (T. gondii): inhibit the growth of T. gondii; inhibition of human Ddi2 activity (human Ddi2): ability to inhibit the activity of human Ddi2

Q: Which “growth of T. gondii” value (T. gondii) does the source give for `CC(C)c1nc(CN(C)C(=O)N[C@H](C(=O)N[C@@H](Cc2ccccc2)C[C@H](O)[C@H](Cc2ccccc2)NC(=O)OCc2cncs2)C(C)C)cs1` [ritonavir] here?
A: inhibit the growth of T. gondii

Q: For `CC(C)(C)NC(=O)[C@@H]1C[C@@H]2CCCC[C@@H]2CN1C[C@@H](O)[C@H](Cc1ccccc1)NC(=O)[C@H](CC(N)=O)NC(=O)c1ccc2ccccc2n1` [saquinavir], which “effect on proteolytic activity of CrypDdi1-RVP” value (CrypDdi1-RVP [4]; 500 μM inhibitor, 20 μM CrypDdi1-RVP, 2 μM HIV protease substrate-1, 0.1M sodium acetate pH 4.5, 1.0 M NaCl, 1.0 mM EDTA, 1.0 mM DTT, 10% DMSO, 37 °C, 1 h, emission 490 nm) is on record?
A: has an inhibitory effect on the proteolytic activity of CrypDdi1-RVP

Q: And the “fluorescence intensity in the presence of inhibitor, CrypDdi1-RVP” value (CrypDdi1-RVP [4]; 500 μM inhibitor, 20 μM CrypDdi1-RVP, FRET, 490 nm, 37 °C, 1 h)?
A: did not increase

Q: And the “binding of inhibitor to ToxoDdi1-RVP” value (ToxoDdi1-RVP [3]; BLI, inhibitor 75-600 μM, MES pH 5.5)?
A: do not bind

Q: And the Kd (CrypDdi1-RVP [1]; Octet Red96, His-tagged CrypDdi1-RVP on Ni-NTA tip, 100 mM MES pH 5.5, 150 mM NaCl, 0.5% BSA, 0.05% Tween 20, 3 min, 1:1 Langmuir)?
A: 242 ± 3 µM

Q: Which “substrate cleavage: fluorescence intensity with increasing protein concentration, ToxoDdi1-RVP” value (ToxoDdi1-RVP [2]; 2 μM substrate, no inhibitor, different ToxoDdi1-RVP concentrations) does the source give for “Arg-Glu(EDANS)-Ser-Gln-Asn-Tyr-Pro-Ile-Val-Gln-Lys(DABCYL)-Arg [HIV protease substrate-1, synthetic FRET peptide containing the HIV protease cleavage site (Tyr-Pro), Sigma-aldrich]” here?
A: An increase in the fluorescence intensity was observed with increasing protein concentration

Q: What about the “substrate cleavage: fluorescence intensity with increasing protein concentration, CrypDdi1-RVP” value (CrypDdi1-RVP [4]; 2 μM substrate, no inhibitor, different CrypDdi1-RVP concentrations) of the same compound?
A: An increase in the fluorescence intensity was observed with increasing protein concentration

Q: What about the “substrate cleavage by HPLC, ToxoDdi1-RVP, 1 h” value (ToxoDdi1-RVP [5]) of the same compound?
A: completely cleaved

Q: And the “substrate cleavage by HPLC, CrypDdi1-RVP, 1 h” value (CrypDdi1-RVP [6]; 100 mM sodium acetate pH 4.7, 1 M NaCl, 1 mM DTT, 37 °C, 1 h)?
A: completely cleaved

Q: What about the “substrate cleavage by HPLC, CrypDdi1-RVP, 30 min” value (CrypDdi1-RVP [6]; pH 4.7, 37 °C, 30 min) of the same compound?
A: both the substrate and the product were detected

Q: With CrypDdi1-RVP (domain or fragment) as the compound, how does the stoichiometry N [7] read?
A: 2

Q: With GVGRQEI [GVGRQEI] as the compound, how does the Kd (LeishDdi1-fl) read?
A: 25.3 ± 3.5 µM

Q: Which Kd (LeishDdi1-fl) does the source give for MIWRKPW [MIWRKPW] here?
A: 2.8 ± 1.5 µM

Q: Which stoichiometry N [8] does the source give for ToxoDdi1-RVP (domain or fragment) here?
A: 2
